The subject of the assay is Colon cancer cells (Colo205 cell line). In words: Colo205 cell proliferation assay (MTT assay, WST-8 readout). The note with it: Homo sapiens, COLO 205, 72 hours incubation, absorbance at 450 nm, read-out: Colo 205 cell growth inhibition IC50. The assay is classed as cell-based. The method, then: Compounds disclosed herein were tested for the inhibition of ERK2 by a Colo205 cell proliferation assay commonly known as MTT assay. In this assay, a complete media was prepared by adding 10% fetal bovine serum to RPMI-1640 medium (Life technology). Colon cancer cells (Colo205 cell line) were added to each of 88 wells of a 96 well plate at a seeding density of 5,000 cells/well/90 μL. The cells were allowed to attach to the plate by incubating at 37° C. for 24 hours. The compound was dissolved in DMSO (SIGMA). A solution of test compound was prepared in complete media by serial dilution to obtain the following concentrations: 500 μM, 150 μM, 50 μM, 15 μM, 5 μM, 1.5 μM, 0.5 μM, 0.15 μM and 0.05 μM. The test compound solution (10 μL) was added to each of 80 cell-containing wells. The final concentrations of the compound were following: 50 μM, 15 μM, 5 μM, 1.5 μM, 0.5 μM, 0.15 μM, 0.05 μM, 0.015 μM and 0.005 μM. The final concentration of DMSO is 0.5%. To the 8 remaining cell-containing wells, only complete media (containing 0.5% DMSO) was added to form a control group in order to measure maximal proliferation. To the remaining 8 empty wells, complete media was added to for a vehicle control group in order to measure background. The plates were incubated at 37° C. for 72 hours. 10 μL WST-8 solution (DOJINDO, Cell Counting KIT-8) was added to each well. The plates were further incubated at 37° C. for 2 hours, and then read for the absorbance using a microplate reader at 450 nm.
(In general: Tetrazolium dyes change colour on reduction, which living cells bring about.)

By IC50 is commonly meant the concentration needed to halve the response being measured.

Regarding `Cc1cc(-c2n[nH]c3ccc(C(=O)N[C@@H]4CN(C)C[C@H]4c4ccccc4Cl)cc23)ccn1` (relative stereo) [Compound 31, trans-N-(-4-(2-chlorophenyl)-1-methylpyrrolidin-3-yl)-3-(2-methylpyridin-4-yl)-1H-indazole-5-carboxamide], the half-inhibitory concentration (IC50) fell in the range of 0.052 to 10 µM.
For `Cc1cc(-c2n[nH]c3ncc(C(=O)N[C@@H]4CN(C(C)C)C[C@H]4c4ccccc4C(F)(F)F)cc23)ccn1` [Compound 21, N-((3S,4R)-1-isopropyl-4-(2-(trifluoromethyl)phenyl)pyrrolidin-3-yl)-3-(2-methylpyridin-4-yl)-1H-pyrazolo[3,4-b]pyridine-5-carboxamide], the IC50 is 0.052 to 10 µM.
The same measure for `Cc1cc(-c2n[nH]c3ncc(C(=O)N[C@H]4CN(C)C[C@@H]4c4cccc(Cl)c4)cc23)ccn1` (relative stereo) [Compound 10, trans-N-(4-(3-chlorophenyl)-1-methylpyrrolidin-3-yl)-3-(2-methylpyridin-4-yl)-1H-pyrazolo[3,4-b]pyridine-5-carboxamide]: 0.052 to 10 µM; for `Cc1cc(-c2n[nH]c3ncc(C(=O)N[C@@H]4CN(C)C[C@H]4c4ccccc4Cl)cc23)ccn1` [Compound 33, N-((3S,4R)-4-(2-chlorophenyl)-1-methylpyrrolidin-3-yl)-3-(2-methylpyridin-4-yl)-1H-pyrazolo[3,4-b]pyridine-5-carboxamide]: 0.052 to 10 µM; for `CCN1C[C@H](NC(=O)c2cnc3[nH]nc(-c4ccnc(C)c4)c3c2)[C@@H](c2ccccc2C(F)(F)F)C1` (relative stereo) [Compound 26, trans-N-(-1-ethyl-4-(2-(trifluoromethyl)phenyl)pyrrolidin-3-yl)-3-(2-methylpyridin-4-yl)-1H-pyrazolo[3,4-b]pyridine-5-carboxamide]: 0.052 to 10 µM.
The result for `Cc1cc(-c2n[nH]c3ncc(C(=O)N[C@H]4CN(C)C[C@@H]4c4ccccc4F)cc23)ccn1` (relative stereo) [Compound 16, trans-N-(-4-(2-fluorophenyl)-1-methylpyrrolidin-3-yl)-3-(2-methylpyridin-4-yl)-1H-pyrazolo[3,4-b]pyridine-5-carboxamide] reads 0.052 to 10 µM.
For `COc1ncc(-c2n[nH]c3ncc(C(=O)N[C@H]4CN(C)C[C@@H]4c4ccccc4C(F)(F)F)cc23)cn1` (relative stereo) [Compound 17, trans-3-(2-methoxypyrimidin-5-yl)-N-(-1-methyl-4-(2-(trifluoromethyl)phenyl)pyrrolidin-3-yl)-1H-pyrazolo[3,4-b]pyridine-5-carboxamide], the IC50 lay within 0.052 to 10 µM.
The result for `Cc1cc(-c2n[nH]c3ncc(C(=O)N[C@H]4CN(C)C[C@@H]4c4ccccc4Cl)cc23)ccn1` [Compound 34, N-((3R,4S)-4-(2-chlorophenyl)-1-methylpyrrolidin-3-yl)-3-(2-methylpyridin-4-yl)-1H-pyrazolo[3,4-b]pyridine-5-carboxamide] reads 0.052 to 10 µM; that for `Cc1cc(-c2n[nH]c3ncc(C(=O)N[C@@H]4COC[C@H]4c4ccccc4)cc23)ccn1` [Compound 35, trans-3-(2-methylpyridin-4-yl)-N-(4-phenyltetrahydrofuran-3-yl)-1H-pyrazolo[3,4-b]pyridine-5-carboxamide], 0.052 to 10 µM.
The result for `CCCN1C[C@H](NC(=O)c2cnc3[nH]nc(-c4ccnc(C)c4)c3c2)[C@@H](c2ccccc2C(F)(F)F)C1` (relative stereo) [Compound 29, trans-3-(2-methylpyridin-4-yl)-N-(-1-propyl-4-(2-(trifluoromethyl)phenyl)pyrrolidin-3-yl)-1H-pyrazolo[3,4-b]pyridine-5-carboxamide] reads 0.052 to 10 µM; that for `Cc1cc(-c2n[nH]c3ncc(C(=O)N[C@H](CO)c4cccc(Cl)c4)cc23)ccn1` [Compound 1, (S)-N-(1-(3-chlorophenyl)-2-hydroxyethyl)-3-(2-methylpyridin-4-yl)-1H-pyrazolo[3,4-b]pyridine-5-carboxamide], 0.052 to 10 µM.
Turning to `Cc1cc(-c2n[nH]c3ncc(C(=O)N[C@H]4CNC[C@@H]4c4ccccc4C(F)(F)F)cc23)ccn1` (stereo in doubt) [Compound 19, 3-(2-methylpyridin-4-yl)-N-(-4-(2-(trifluoromethyl)phenyl)pyrrolidin-3-yl)-1H-pyrazolo[3,4-b]pyridine-5-carboxamide], the IC50 fell in the range of 0.052 to 10 µM.
As for `Cc1cc(-c2n[nH]c3ccc(C(=O)N[C@@H]4CN(C)C[C@H]4c4ccccc4Cl)cc23)ccn1` [Compound 37, N-((3S,4R)-4-(2-chlorophenyl)-1-methylpyrrolidin-3-yl)-3-(2-methylpyridin-4-yl)-1H-indazole-5-carboxamide], the IC50 was in the range of 0.052 to 10 µM.
The result for `CN1C[C@H](NC(=O)c2cnc3[nH]nc(-c4ccnc(C(F)(F)F)c4)c3c2)[C@@H](c2ccccc2C(F)(F)F)C1` (stereo in doubt) [Compound 18, N-(-1-methyl-4-(2-(trifluoromethyl)phenyl)pyrrolidin-3-yl)-3-(2-(trifluoromethyl)pyridin-4-yl)-1H-pyrazolo[3,4-b]pyridine-5-carboxamide] reads 0.052 to 10 µM; that for `Cc1cc(-c2n[nH]c3ncc(C(=O)N[C@@H]4CN(C)C[C@H]4c4ccccc4C(F)(F)F)cc23)ccn1` (racemic) [Compound 3, trans-N-(1-methyl-4-(2-(trifluoromethyl)phenyl)pyrrolidin-3-yl)-3-(2-methylpyridin-4-yl)-1H-pyrazolo[3,4-b]pyridine-5-carboxamide], 0.052 to 10 µM; that for `COc1cc(-c2n[nH]c3ncc(C(=O)N[C@H]4CN(C)C[C@@H]4c4ccccc4C(F)(F)F)cc23)ccn1` (relative stereo) [Compound 13, trans-3-(2-methoxypyridin-4-yl)-N-(1-methyl-4-(2-(trifluoromethyl)phenyl)pyrrolidin-3-yl)-1H-pyrazolo[3,4-b]pyridine-5-carboxamide], 0.052 to 10 µM.
The same measure for `CN1C[C@H](NC(=O)c2cnc3[nH]nc(N4CCOCC4)c3c2)[C@@H](c2ccccc2C(F)(F)F)C1` (relative stereo) [Compound 9, trans-N-(1-methyl-4-(2-(trifluoromethyl)phenyl)pyrrolidin-3-yl)-3-morpholino-1H-pyrazolo[3,4-b]pyridine-5-carboxamide]: 0.052 to 10 µM; for `Cc1cc(-c2n[nH]c3nc(NC(=O)N[C@H](C)c4ccccc4)ccc23)ccn1` [Compound 2, (R)-1-(3-(2-methylpyridin-4-yl)-1H-pyrazolo[3,4-b]pyridin-6-yl)-3-(1-phenylethyl)urea]: 0.052 to 10 µM.
Consider `Cc1cc(-c2n[nH]c3ccc(C(=O)N[C@H]4CN(C)C[C@@H]4c4ccccc4C(F)(F)F)cc23)ccn1` [Compound 41, N-((3R,4S)-1-methyl-4-(2-(trifluoromethyl)phenyl)pyrrolidin-3-yl)-3-(2-methylpyridin-4-yl)-1H-indazole-5-carboxamide], for which the half-inhibitory concentration (IC50) is 0.052 to 10 µM.
`COCCN1C[C@@H](NC(=O)c2cnc3[nH]nc(-c4ccnc(C)c4)c3c2)[C@H](c2ccccc2C(F)(F)F)C1` [Compound 22, N-((3S,4R)-1-(2-methoxyethyl)-4-(2-(trifluoromethyl)phenyl)pyrrolidin-3-yl)-3-(2-methylpyridin-4-yl)-1H-pyrazolo[3,4-b]pyridine-5-carboxamide]: the IC50 fell in the range of 0.052 to 10 µM.
The same measure for `Cc1cc(-c2n[nH]c3ncc(C(=O)N[C@H]4CCC[C@@H]4c4ccccc4)cc23)ccn1` [Compound 32]: 0.052 to 10 µM; for `Cc1cc(-c2n[nH]c3ccc(C(=O)N[C@@H]4CN(C)C[C@H]4c4ccccc4C(F)(F)F)cc23)ccn1` [Compound 39, N-((3S,4R)-1-methyl-4-(2-(trifluoromethyl)phenyl)pyrrolidin-3-yl)-3-(2-methylpyridin-4-yl)-1H-indazole-5-carboxamide]: 0.052 to 10 µM; for `Cc1cc(-c2n[nH]c3ncc(C(=O)N[C@@H]4C[C@H]4c4ccccc4Cl)cc23)ccn1` (relative stereo) [Compound 40, trans-N-(2-(2-chlorophenyl)cyclo-propyl)-3-(2-methylpyridin-4-yl)-1H-pyrazolo[3,4-b]pyridine-5-carboxamide]: 0.052 to 10 µM.
The result for `Cc1cc(-c2n[nH]c3ncc(C(=O)N[C@H]4CN(C)C[C@@H]4c4ccc(F)cc4)cc23)ccn1` (relative stereo) [Compound 24, trans-N-(-4-(4-fluorophenyl)-1-methylpyrrolidin-3-yl)-3-(2-methylpyridin-4-yl)-1H-pyrazolo[3,4-b]pyridine-5-carboxamide] reads 0.052 to 10 µM.
`Cc1cc(-c2n[nH]c3ccc(C(=O)N[C@H]4CN(C)C[C@@H]4c4ccccc4F)cc23)ccn1` (relative stereo) [Compound 23, trans-N-(-4-(2-fluorophenyl)-1-methylpyrrolidin-3-yl)-3-(2-methylpyridin-4-yl)-1H-indazole-5-carboxamide]: the IC50 was 0.052 to 10 µM.
For the compound `Cc1cc(-c2n[nH]c3ncc(NC(=O)N[C@@H](C)c4ccccc4)cc23)ccn1` [Compound 4, (S)-1-(3-(2-methylpyridin-4-yl)-1H-pyrazolo[3,4-b]pyridin-5-yl)-3-(1-phenylethyl)urea], the half-maximal inhibitory concentration (IC50) fell in the range of 0.052 to 10 µM.
